Assay results: patent US6831075B2, “Heterocyclic substituted pyrazolones” (Cephalon, Inc., priority 1999, dated 2004)

How the values were obtained:
[1] = biological target: T1, recombinant human baculovirus-expressed FGFR1 cytoplasmic domain (Homo sapiens, UniProt P11362); assay: FGFR1 kinase inhibition assay (ELISA-based, time-resolved fluorescence); type: biochemical; details: 1 uM compound; 20 μM ATP
T1 construct: recombinant human baculovirus-expressed FGFR1 cytoplasmic domain; host or cells: baculovirus expression system
Method: Inhibition of Fibroblast Growth Factor Receptor-1 (FGFR1) Kinase Activity
The FGFR1 kinase activity was measured using an ELISA-based format in a 96-well FluoroNUNC Maxisorp plate with a time-resolved fluorescence readout as described for trkA kinase. The plate was coated with 100 μl/well of substrate solution (recombinant human PLC-γ/GST) at a concentration of 10 μg/ml in Tris buffered saline (TBS). The FDGFR1 activity was assayed in 100-μl assay micture containing 50 mM HEPES (pH 7.4), 20 μM ATP, 10 mM MnCl2, 0.1% BSA, 2% DMSO, and 15 ng/ml recombinant human baculovirus-expressed FGFR1 cytoplasmic domain (prephosphorylated prior to use). Compounds were screened for inhibition of the FGFR1 kinase activity at a conentration of 1 μM. The kinase reaction was allowed to proceed at 37° C. for 15 minutes. The detection antibody, europium-labeled anti-phosphotyrosine antibody (Wallace #CR04-100), was added at 1:5000 dilution in block buffer (3% BSA in TBST). After a 1-hour incubation at 37° C., 100 μl of enhancement solution (Wallac #1244-105) and the plate was gently agitated. After 5 min, the fluorescence of the resulting solutions measured using the BMG Fluostar (Model # 403).

[2] = biological target: T2, recombinant human baculovirus-expressed VEGFR1 cytoplasmic domain (Homo sapiens, UniProt P17948); assay: VEGFR1 kinase inhibition assay (ELISA-based, time-resolved fluorescence); type: biochemical; details: 1 uM compound, 30 μM ATP; for inhibition at 1 µM: read-out: VEGFR-1 kinase % inhibition @ 1 uM
T2 construct: recombinant human baculovirus-expressed VEGFR1 cytoplasmic domain; host or cells: baculovirus expression system
T2 sequence (P17948 781-1338 limits assumed): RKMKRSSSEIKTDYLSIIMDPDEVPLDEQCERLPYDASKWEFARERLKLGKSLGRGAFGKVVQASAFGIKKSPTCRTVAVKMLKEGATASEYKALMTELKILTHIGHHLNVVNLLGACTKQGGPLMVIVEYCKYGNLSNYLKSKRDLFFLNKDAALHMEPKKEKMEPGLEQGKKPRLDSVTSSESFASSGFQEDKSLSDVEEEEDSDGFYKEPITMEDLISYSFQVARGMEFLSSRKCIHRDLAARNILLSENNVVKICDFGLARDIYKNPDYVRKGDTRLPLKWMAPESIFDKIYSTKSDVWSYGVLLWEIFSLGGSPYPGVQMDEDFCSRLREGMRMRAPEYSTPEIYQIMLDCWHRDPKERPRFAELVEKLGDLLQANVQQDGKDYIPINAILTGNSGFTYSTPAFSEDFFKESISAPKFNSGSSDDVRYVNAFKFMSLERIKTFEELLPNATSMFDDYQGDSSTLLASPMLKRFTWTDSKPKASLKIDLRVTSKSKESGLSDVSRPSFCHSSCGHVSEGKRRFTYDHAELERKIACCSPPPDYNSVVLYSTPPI
Method: Inhibition of Vascular Endothelial Growth Factor Receptor-1 Kinase Activity
The VEGFR1 kinase activity assay utilizes an ELISA-based format in a 96-well FluoroNUNC Maxisorp plate with a time-resolved fluorescence readout. The plate was coated with 100 μl/well of substrate solution (recombinant human PLC-γ/GST) at a concentration of 40 μg/ml in Tris buffered saline (TBS). The VEGFR1 activity was assayed in 100-μl assay micture containing 50 mM HEPES (pH 7.4), 30 μM ATP, 10 mM MnCl2, 0.1% BSA, 2% DMSO, and 300 ng/ml prephosphorylated recombinant human baculovirus-expressed VEGFR1 cytoplasmic domain. Compounds were screened for inhibition of the VEGFR1 kinase activity at a concentration of 1 μM. The kinase reaction was allowed to proceed at 37° C. for 15 minutes. The detection antibody, europium-labeled anti-phosphotyrosine antibody (Wallac #CR04-100), was added at 1:5000 dilution in block buffer (3% BSA in TBST). After a 1-hour incubation at 37° C., 100 μl of enhancement solution (Wallac #1244-105) was added and the plate was gently agitated. After 5 min, the fluorescence of the resulting solution was measured using the BMG Fluostar (Model # 403).

T1 sequence (P11362 398-822 limits assumed): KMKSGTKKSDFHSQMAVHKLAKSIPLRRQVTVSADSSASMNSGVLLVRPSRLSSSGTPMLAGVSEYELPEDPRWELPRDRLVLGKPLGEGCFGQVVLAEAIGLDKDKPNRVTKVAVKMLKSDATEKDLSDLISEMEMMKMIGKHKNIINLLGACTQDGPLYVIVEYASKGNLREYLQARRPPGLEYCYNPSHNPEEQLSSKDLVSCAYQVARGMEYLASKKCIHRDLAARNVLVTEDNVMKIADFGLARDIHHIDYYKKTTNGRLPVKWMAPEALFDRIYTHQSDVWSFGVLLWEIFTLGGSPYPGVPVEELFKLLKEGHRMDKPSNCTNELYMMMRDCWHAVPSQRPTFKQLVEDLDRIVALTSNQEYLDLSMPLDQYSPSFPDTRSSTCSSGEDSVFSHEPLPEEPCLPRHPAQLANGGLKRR

Structure (SMILES) | FGFR1 % inhibition @ 1 uM [1] [%] | VEGFR-1 kinase % inhibition @ 1 uM [2] [%] | inhibition at 1 µM [1] [%] | inhibition at 1 µM [2] [%]
O=C1NN=C(c2ccco2)C1=Cc1c[nH]c2cccc(OCc3ccccc3)c12 [Compound 44] | 10 | 2 | – | –
Cn1cc(C=C2C(=O)NN=C2c2ccco2)c2ccccc21 [Compound 45] | 8 | 46 | – | –
Cc1ccc2c(C=C3C(=O)NN=C3c3ccco3)c[nH]c2c1 [Compound 46] | 25 | 41 | – | –
Cc1cccc2c(C=C3C(=O)NN=C3c3ccco3)c[nH]c12 [Compound 47] | 32 | 40 | – | –
O=C1NN=C(c2ccco2)C1=Cc1c[nH]c2ccc(F)cc12 [Compound 48] | 43 | 54 | – | –
O=C1NN=C(c2ccco2)C1=Cc1c[nH]c2ccc(Cl)cc12 [Compound 49] | 39 | 32 | – | –
COC(=O)c1ccc2c(C=C3C(=O)NN=C3c3ccco3)c[nH]c2c1 [Compound 50] | 20 | 31 | – | –
COc1ccc2[nH]cc(C=C3C(=O)NN=C3c3ccco3)c2c1 [Compound 51] | 9 | 25 | – | –
CN(C)c1ccc(C=C2C(=O)NN=C2c2ccco2)cc1 [Compound 52] | 10 | 0 | – | –
Cc1nc[nH]c1C=C1C(=O)NN=C1c1ccco1 [Compound 53] | 50 | 21 | – | –
O=C1NN=C(c2ccco2)C1=Cc1ncc[nH]1 [Compound 54] | 45 | 5 | – | –
Cc1cc(C)c(C=C2C(=O)NN=C2c2cccn2C)[nH]1 [Compound 55] | 36 | 20 | – | –
Cn1cccc1C1=NNC(=O)C1=Cc1c[nH]c2ccc(F)cc12 [Compound 56] | 30 | 5 | – | –
Cc1cc(C)c(C=C2C(=O)NN=C2c2cc3ccccc3o2)[nH]1 [Compound 57, 3-benzo[d]furan-2-yl-4-[(3,5-dimethylpyrrol-2-yl)methylene]-2-pyrazolin-5-one] | – | – | -2 | 7
O=C1NN=C(c2cc3ccccc3o2)C1=Cc1c[nH]c2ccccc12 [Compound 58] | 24 | 51 | – | –
Cn1cc(C=C2C(=O)NN=C2c2cc3ccccc3o2)c2ccccc21 [Compound 59] | 29 | −2 | – | –

Structure (SMILES) | FGFR1 % inhibition @ 1 uM [1] [%] | VEGFR-1 kinase % inhibition @ 1 uM [2] [%] | inhibition at 1 µM [1] [%] | inhibition at 1 µM [2] [%]
Cn1cc(C=C2C(=O)NN=C2c2nccs2)c2ccccc21 [Compound 60] | 66 | 63 | – | –
Cc1cc(C)c(C=C2C(=O)NN=C2c2cccs2)[nH]1 [Compound 61] | 35 | 44 | – | –
O=C1NN=C(c2cccs2)C1=Cc1c[nH]c2ccccc12 [Compound 62] | 37 | 38 | – | –
Cn1cc(C=C2C(=O)NN=C2c2cccs2)c2ccccc21 [Compound 63] | 38 | 40 | – | –
N#CCCn1cc(C=C2C(=O)NN=C2c2nccs2)c2ccccc21 [Compound 64] | 7 | 26 | – | –
N#CCCn1cc(C=C2C(=O)NN=C2c2ccoc2)c2ccccc21 [Compound 65] | 21 | 22 | – | –
N#CCCn1cc(C=C2C(=O)NN=C2c2cccs2)c2ccccc21 [Compound 66] | 29 | 24 | – | –
N#CCCn1cc(C=C2C(=O)NN=C2c2ccco2)c2ccccc21 [Compound 67] | 23 | 22 | – | –
O=C1NN=C(c2ccoc2)C1=Cc1cn(Cc2ccccc2)c2ccccc12 [Compound 68] | 27 | 11 | – | –
O=C1NN=C(c2ccco2)C1=Cc1cn(Cc2ccccc2)c2ccccc12 [Compound 69] | 30 | 5 | – | –
O=C1NN=C(c2nccs2)C1=Cc1cn(Cc2ccccc2)c2ccccc12 [Compound 70] | 21 | 1 | – | –
O=C1NN=C(c2ccco2)C1=Cc1cn(CCOCc2ccccc2)c2ccccc12 [Compound 71] | 26 | 12 | – | –
O=C1NN=C(c2nccs2)C1=Cc1cn(CCOCc2ccccc2)c2ccccc12 [Compound 72] | 29 | 12 | – | –
CC(C)Cn1cc(C=C2C(=O)NN=C2c2nccs2)c2ccccc21 [Compound 73] | 19 | 12 | – | –
Cc1cc(C)c(C=C2C(=O)NN=C2c2cnccn2)[nH]1 [Compound 74, 4-[(3,5-dimethylpyrrol-2-yl)methylene]-3-pyrazin-2-yl-2-pyrazolin-5-one] | – | – | 48 | 74
O=C1NN=C(c2cccs2)C1=Cc1cn(Cc2ccccc2)c2ccccc12 [Compound 75] | 26 | 5 | – | –
